Results on four compounds are retold here after ChEMBL document CHEMBL1201862, “PubChem BioAssay data set” (2004).

Some test systems named below: RPMI-8226; CCRF-CEM; HOP-92; T47D; U-251; Hs-578T; IGROV-1; A498; DMS-114; OVCAR-3; LOX IMVI; SW-620; SF-268; OVCAR-8; NCI/ADR-RES; K562; COLO 205; SNB-75; HCT-116; BT-549.
Assay in all cases: NCI-60 cell line screen, 48 h

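Cultured in 96-well plates, cells were exposed to test compound for 48 hours across five concentrations. GI50 is the concentration that inhibits growth by half.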 Calls of active or inactive are those of the source. No stated cut-off is given here; in the data, active = GI50 up to about 1.1 µM and inactive = higher.

As for `NC(=O)C(=O)n1ncc(Cl)c(Cl)c1=O`, the GI50 in the test on RPMI-8226 was 11.7 µM (inactive); with CCRF-CEM, 6.03 µM (inactive); in the test with HOP-92, > 42.3 µM (inactive); in the test on T47D, > 100 µM (inactive); in the test on U-251, > 40.7 µM (inactive); in the test with Hs-578T it was > 100 µM (inactive). Also, the GI50 is > 56.6 µM (inactive) in the test with IGROV-1; > 72.9 µM (inactive) in the test with A498; 16.9 µM (inactive) with DMS-114; 32.2 µM (inactive) in the test on OVCAR-3; 22.4 µM (inactive) in the test with LOX IMVI; 13.3 µM (inactive) in the test with SW-620. Moreover, the GI50 in the test on SF-268 is 46 µM (inactive); in the test with OVCAR-8, 24.2 µM (inactive); in the test on NCI/ADR-RES it was 24.4 µM (inactive); in the test with K562, 9.46 µM (inactive); in the test on COLO 205 it was > 32.9 µM (inactive); with SNB-75, > 42.8 µM (inactive). The GI50 with HCT-116 is 29.1 µM (inactive).
For `CC1(C)OCC(CO)(Nc2nc(N3CC3)nc(N3CC3)n2)CO1`, the GI50 with BT-549 was 26.1 µM (inactive); in the test with RPMI-8226, 16.1 µM (inactive); with CCRF-CEM, 1.16 µM (inactive); in the test on HOP-92, 15.3 µM (inactive); in the test with T47D, 1.49 µM (inactive); in the test with U-251 it was 4.04 µM (inactive). The GI50 with Hs-578T was 19 µM (inactive); in the test with IGROV-1, 20.6 µM (inactive); with A498 it was 10.2 µM (inactive); with DMS-114 it was 4.65 µM (inactive); in the test on OVCAR-3 it was 20.4 µM (inactive); with LOX IMVI it was 5.52 µM (inactive). The GI50 in the test with SW-620 was 14.5 µM (inactive); in the test on SF-268, 4.07 µM (inactive); with OVCAR-8, 11.3 µM (inactive); with K562 it was 12.7 µM (inactive); in the test on COLO 205, 20.3 µM (inactive); in the test with SNB-75, 6.58 µM (inactive). Besides, the GI50 with HCT-116 was 1.85 µM (inactive).
Turning to `CC(=O)Oc1ccccc1C(=O)C1c2cccc(O)c2C(=O)c2c(O)cccc21`, the GI50 in the test on RPMI-8226 is 0.374 µM (active); with CCRF-CEM, 0.306 µM (active); in the test with HOP-92 it was 1.18 µM (inactive); with U-251, 0.494 µM (active); in the test with IGROV-1, 0.986 µM (active); in the test with A498, 1.8 µM (inactive). Moreover, the GI50 in the test with DMS-114 was 0.366 µM (active); in the test on OVCAR-3 it was 0.593 µM (active); with LOX IMVI, 1.62 µM (inactive); with SW-620, 0.445 µM (active); in the test with SF-268, 0.927 µM (active); in the test with OVCAR-8 it was 1.23 µM (inactive). Moreover, the GI50 is 0.366 µM (active) in the test with K562, 0.705 µM (active) in the test on COLO 205, 0.695 µM (active) in the test on SNB-75 and 0.897 µM (active) with HCT-116.
As to `C/C(=N/Nc1ccc([N+](=O)[O-])cc1[N+](=O)[O-])C(CC(C(=O)Nc1ccccc1C)/C(C)=N\Nc1ccc([N+](=O)[O-])cc1[N+](=O)[O-])C(=O)Nc1ccccc1C` (stereo not given), the GI50 with RPMI-8226 is > 35 µM (inactive); with CCRF-CEM it was > 100 µM (inactive); in the test on HOP-92, 7.08 µM (inactive); in the test with U-251 it was 6.12 µM (inactive); with IGROV-1, 15.8 µM (inactive); with A498, 14.9 µM (inactive). Moreover, the GI50 with DMS-114 is 6.87 µM (inactive); in the test with OVCAR-3 it was 7.06 µM (inactive); in the test with LOX IMVI, 14.4 µM (inactive); in the test with SW-620, 18.8 µM (inactive); in the test on SF-268 it was 7.67 µM (inactive); in the test on OVCAR-8, 6 µM (inactive). Also, the GI50 with K562 was > 100 µM (inactive); with COLO 205, 12.8 µM (inactive); in the test on SNB-75 it was 10.1 µM (inactive); in the test with HCT-116, 13.5 µM (inactive).
